According to patent US20250325469A1, “Inhibitors of atp synthase - cosmetic and therapeutic uses” (priority 2021, published 2025):
Substitutions are numbered along the chain they refer to. Numbers in names are those of the source. Where two headings read alike, the source gives them in different places. Where no end group is shown, it is not given here. [ ]: non-standard residue; d: D form.

What was measured:
[1] = cited from earlier work
[2] = 5.5 (±1.7) ug/kg/min i.v. with inhaled nitric oxide (5 p.p.m.), across all subjects [183]; cited from earlier work
[3] = cited from earlier work; remark: listed apart in the source
[4] = cited from earlier work; remark: listed apart in the source
[5] = cited from earlier work; remark: listed apart in the source
[6] = rats, radioactively labelled [151]; cited from earlier work
cells [7] = conditions: cited from earlier work
cells [8] = conditions: variant with side-chain chiral amino acids swopped; cited from earlier work
F1F0 ATP hydrolysis [9] = biological target: T1, F1F0 ATP hydrolysis (Mus musculus, UniProt P56480+Q03265); conditions: cited from earlier work
T1 construct: F1F0 ATP hydrolysis is 35% less in brain mitochondria isolated from H+/T+ than wild-type mice; from tissue; host or cells: mitochondria isolated from brain of wild-type and H+/T+ double transgenic mice

[10] = system: oxidative phosphorylation; conditions: State 3 respiration, H+/T+ vs wild-type [130]; cited from earlier work
F1F0 ATP hydrolysis [11] = biological target: T1, F1F0 ATP hydrolysis; conditions: brain mitochondria of H+/T+ vs wild-type mice [130]; cited from earlier work
ROS (superoxide) = assay: MitoSOX ROS (superoxide) signal in cultured cortical neurons of H+/T+ mice; type: cell-based, mouse; conditions: H+/T+ vs wild-type mitochondria, corrected for MitoSOX accumulation
Description: (FIG. 6B) Experiments with cortical neurons in culture, after being cultured for 9-10 days, after being extracted from mouse embryos. […] As in FIG. 6A. But this time in cultured cortical neurons from the mice (embryos), wherein the mitochondria of H+/T+ mice have a more hyperpolarized ΨIM (accumulate more TMRM^+) than wild-type. But, as in FIG. 6A, have a more depolarized ΨIM upon FCCP/respiratory chain inhibitor (antimycin A/rotenone) administration. A typical value for ΨIM in normal mitochondria is −140 mV and if we equate the 5 a.u. value for wild-type in the 2nd panel with −140 mV, then the 6 a.u. value of H+/T+here in the 2nd panel is −168 mV. This ΨIM disparity means that H+/T+ mitochondria accumulates more MitoSOX ROS (superoxide) reporting compound in their mitochondrial matrix, wherein this disparity can be calculated using the equation presented earlier, and this disparity is shown here, in the 3rd panel. With this MitoSOX accumulation disparity, one would expect a greater MitoSOX signal from H+/T+ mitochondria, to wild-type mitochondria, in the proportion shown in the 3rd panel. But what is actually experimentally observed is in the 4th panel. Thence H+/T+ mitochondria must produce 66% less ROS (superoxide) than wild-type, which fits with their lower oxidative respiration rate observed in (FIG. 6A). […]

[12] = system: oxidative phosphorylation; conditions: cited from earlier work
[13] = mouse, in vivo; cited from earlier work
F1F0 ATP hydrolysis [14] = biological target: T1, F1F0 ATP hydrolysis; conditions: colon mitochondria, I/T Tet-on mice [136]; cited from earlier work
[15] = system: oxidative phosphorylation; conditions: colon mitochondria, I/T Tet-on mice [136]; cited from earlier work
[16] = biological target: bovine F1F0 ATP hydrolysis (Bos taurus, UniProt P00829+P19483); conditions: cited from earlier work
[17] = COPD patients, 100 mg oral daily for 1 year, at year end
[18] = 7.47 ug/kg/min for 2 hours (60 mg), at the end of the infusion period
[19] = COPD patients, 100 mg oral daily for 1 year [168]

Molecule: C=CCNc1nc(NCC=C)nc(N2CCN(C(c3ccc(F)cc3)c3ccc(F)cc3)CC2)n1 [almitrine dimesylate]
- plasma [almitrine] ([1]; COPD patients, 50 mg twice daily for 8 weeks, 2 weeks after the study): 104 ng/mL
- plasma [almitrine] before the morning dose ([1]; COPD patients, 50 mg twice daily, day 14): 93 ng/mL
- plasma [almitrine] before the morning dose ([1]; COPD patients, 50 mg twice daily, day 28): 134 ng/mL
- plasma [almitrine] before the morning dose ([1]; COPD patients, 50 mg twice daily, day 42): 148 ng/mL
- plasma [almitrine] before the morning dose ([1]; COPD patients, 50 mg twice daily, day 56): 171 ng/mL
- average trough plasma [almitrine] ([1]; COPD patients, 75 mg oral daily for 6 months, at study end): 302 ng/mL
- mean plasma [almitrine] ([1]; COPD patients, 100 mg oral daily 2 months then 1 month none, cycle for 1 year, at end): 285 ng/mL
- mean plasma [almitrine] [1, 17]: 409.35 ng/mL
- trough plasma [almitrine] [1, 17]: 301.8 ng/mL
- plasma [almitrine] ([1]; COPD patients, 100 mg twice daily for 8 weeks, 2 weeks after the study): 311 ng/mL
- plasma [almitrine] before the morning dose ([1]; COPD patients, 100 mg twice daily, day 14): 268 ng/mL
- plasma [almitrine] before the morning dose ([1]; COPD patients, 100 mg twice daily, day 28): 409 ng/mL
- plasma [almitrine] before the morning dose ([1]; COPD patients, 100 mg twice daily, day 42): 442 ng/mL
- plasma [almitrine] before the morning dose ([1]; COPD patients, 100 mg twice daily, day 56): 572 ng/mL
- plasma [almitrine] ([1]; COPD patients, 100-200 mg daily, those presenting peripheral neuropathy, at 3 months): 344 ng/mL
- plasma [almitrine] ([1]; COPD patients, 100-200 mg daily, those presenting peripheral neuropathy, at 12 months): 617 ng/mL
- plasma [almitrine] ([1]; COPD patients, 100-200 mg daily, those without peripheral neuropathy, at 3 months): 249 ng/mL
- plasma [almitrine] ([1]; COPD patients, 100-200 mg daily, those without peripheral neuropathy, at 12 months): 387 ng/mL
- plasma [almitrine], two 50 mg doses per day vs a single 100 mg oral dose ([1]; COPD patients, long term [167]): 2 to 3 times higher
- time of peak plasma concentration of almitrine after consuming ([1]; human, oral [151]): 3.5 ± 0.7 h
- oral dose bioavailable ([1]; on average across subjects): 85%
- increase of arterial pO2 [2]: > 30%
- lowest observed almitrine plasma level [3, 18]: 242 ng/mL
- mean almitrine plasma level [3, 18]: 327 ng/mL
- mean almitrine plasma level ([3]; 7.47 ug/kg/min for 2 hours, 15 minutes afterwards): 157 ng/mL
- mean almitrine plasma level ([3]; 7.47 ug/kg/min for 2 hours, 30 minutes afterwards): 154 ng/mL
- mean almitrine plasma level ([3]; 7.47 ug/kg/min for 2 hours, 60 minutes afterwards): 105 ng/mL
- mean almitrine plasma level ([3]; 7.47 ug/kg/min for 2 hours, 120 minutes afterwards): 67 ng/mL
- mean almitrine plasma level ([3]; 7.47 ug/kg/min for 2 hours, 600 minutes afterwards): 55 ng/mL
- adverse effects ([4]; COPD patients, 75 mg oral daily for 6 months): no adverse effects
- increase in occurrence of a nervous system disorder vs placebo control [4, 19]: 4%
- increase in occurrence of paraesthesia vs placebo control [4, 19]: 5%
- increase in occurrence of polyneuropathy vs placebo control [4, 19]: 3.6%
- incidence of peripheral neuropathy, almitrine vs control group ([4]; COPD patients, 100-200 mg daily for a year [151]): 5 times higher
- time at which peripheral neuropathy started to manifest, on average ([4]; COPD patients, 100-200 mg daily for a year, in a minority [151]): 7 months
- safety ([4]; healthy subjects, 400 mg oral per day, short term [163]): safe

Molecule: C=CCNc1nc(NCC=C)nc(N2CCN(C(c3ccc(F)cc3)c3ccc(F)cc3)CC2)n1 [almitrine]
- mean plasma concentration of almitrine ([3]; 8 μg/kg/min for 20 minutes, during infusion): 325 ng/mL
- highest observed plasma almitrine concentration ([3]; 16 μg/kg/min for 1 hour [177]): ~1,600 ng/ml
- plasma almitrine concentration, all subjects but one ([3]; 16 μg/kg/min for 1 hour, 2 hours after the infusion stopped [177]): below 400 ng/ml
- plasma almitrine concentration, all subjects ([3]; 16 μg/kg/min for 1 hour, by 12 hours [177]): below 200 ng/ml
- plasma almitrine concentration, all subjects ([3]; 16 μg/kg/min for 1 hour, during infusion [177]): greater than 600 ng/ml
- mean plasma concentration of almitrine ([3]; 16 μg/kg/min, 20 minutes into the infusion): 659 ng/mL
- adverse side-effect ([5]; 8.3 μg/kg/min for 30 minutes [176]): no adverse side-effect was observed
- plasma lactate concentrations ([5]; 16 μg/kg/min infusion): remained within the normal range in all patients
- deleterious effects ([5]; 16.7 ug/kg/min for 1 hour): without deleterious effects
- tissue accumulation [6]: especially accumulated in the lungs

Molecule: Kkwkmrrnqfwvkvqr (K[dK][dW][dK][dM][dR][dR][dN][dQ][dF][dW][dV][dK][dV][dQ][dR]; not fully specified (residue 1); printed as Kkwkmrrnqfwvkvqr; also: retroinverse) [Retroinverse penetratin]
- cellular toxicity (cells [7]): some cellular toxicity
- cellular penetration compared with penetratin (cells [8]): greater cellular penetration than penetratin

B1: human H49K IF1 protein: mutant human IF1 protein with a H49K substitution, expressed as transgene in mice (protein, UniProt Q9UII2 26-106, looked up, variant H49K)
ATPase inhibitor, …: GSDQSENVDRGAGSIREAGGAFGKREQAEEERYFRAQSREQLAALKKHKEEEIVHHKKEIERLQKEIERHKQKIKMLKHDD
modifications: expressed as transgene in mice
- inhibition of F1F0 ATP hydrolysis capability (F1F0 ATP hydrolysis [9]; Tet-off mice [135]): 25%
- inhibition of F1F0 ATP hydrolysis capability (F1F0 ATP hydrolysis [9]; Tet-on mice [135]): 40%
- less O2 consumption [10]: ~60%
- reduction of F1F0 ATP hydrolysis capability (F1F0 ATP hydrolysis [11]): 35%
- less ROS (superoxide) produced (ROS (superoxide)): 66%
- decrease of State 3 respiration rate ([12]; Tet-off mice [135]): 37%
- decrease of State 3 respiration rate ([12]; Tet-on mice [135]): 44%
- weight, life span and cage behavior [13]: no differences in weight, life span and cage behavior when compared to controls after one year of follow up

B2: human IF1 protein: Non-mutant human IF1 protein expressed as transgene in mouse intestine cells (protein, UniProt Q9UII2 26-106, looked up)
ATPase inhibitor, …: B1 ATPase inhibitor, … with K49H
- inhibition of F1F0 ATP hydrolysis capability (F1F0 ATP hydrolysis [14]): 35%
- decrease of oligomycin sensitive respiration rate [15]: 60%

B3: yeast IF1 protein: IF1 protein sequence from yeast (protein, UniProt P01097 23-85, looked up)
F(1)-ATPase inhibitor IF(1), …: SEGSTGTPRGSGSEDSFVKRERATEDFFVRQREKEQLRHLKEQLEKQRKKIDSLENKIDSMTK
- inhibition of bovine F1F0 ATP hydrolysis [16]: can inhibit
